Data on 34 compounds can be found in ChEMBL document CHEMBL1144250, “3D QSAR studies on GSK-3 inhibition by aloisines” (Bioorg Med Chem Lett, 2005).

In this experiment the target is Glycogen synthase kinase-3 (Homo sapiens, UniProt P49840+P49841). As to the kind of experiment: Inhibitory concentration against Glycogen synthase kinase-3. It is filed as protein assay.
For `Cc1ccc(-c2cc3[nH]ccnc-3n2)cc1`, the “Log IC50” value is -5.59.
The result for `Brc1ccc(-c2cc3[nH]ccnc-3n2)cc1` reads -5.22.
As to `CN(C)c1ccc(-c2cc3[nH]ccnc-3n2)cc1`, the “Log IC50” value is -4.92.
The same measure for `Clc1ccc(-c2[nH]c3nccnc3c2Cc2ccccc2)cc1`: -5.17.
The result for `COc1ccc(-c2[nH]c3nccnc3c2CCCCl)cc1` reads -5.6; that for `CCCCc1c(-c2ccc(OC)cc2)[nH]c2nccnc12` [ALOISINE], -6.04.
The result for `CC(C)c1c(-c2ccc(Cl)cc2)[nH]c2nccnc12` reads -6.12.
On to `COc1ccc(-c2[nH]c3nccnc3c2CC2CCCCC2)cc1`, for which the “Log IC50” value is reported as -5.17.
The same measure for `CCCc1c(-c2ccc(OC)cc2)[nH]c2nccnc12`: -6.4; for `COc1ccc(-c2[nH]c3nccnc3c2C)cc1OC`: -5.7.
The result for `COc1ccc(-c2[nH]c3nccnc3c2C)cc1` reads -6.34; that for `COc1ccc(-c2[nH]c3nccnc3c2C(C)C)cc1`, -6.3; that for `Cc1c(-c2ccc(OS(=O)(=O)N(C)C)cc2)[nH]c2nccnc12`, -6.3.
The result for `FC(F)(F)c1ccc(-c2cc3[nH]ccnc-3n2)cc1` reads -5.14; that for `COc1cc(-c2cc3[nH]ccnc-3n2)cc(OC)c1OC`, -4.7; that for `COc1ccccc1-c1cc2[nH]ccnc-2n1`, -5.48.
On to `COc1ccc(-c2cc3[nH]ccnc-3n2)cc1`, for which the “Log IC50” value is recorded as -5.96.
The same measure for `N#Cc1ccc(-c2cc3[nH]ccnc-3n2)cc1`: -5.32; for `Oc1ccc(-c2cc3[nH]ccnc-3n2)cc1`: -5.92; for `CCCCCCCc1c(-c2ccc(OC)cc2)[nH]c2nccnc12`: -5.
In the case of `Clc1ccc(-c2[nH]c3nccnc3c2CC2CCCCC2)cc1`, the “Log IC50” value is -5.1.
The result for `Cc1c(-c2ccc(O)cc2)[nH]c2nccnc12` reads -6.28.
The same measure for `CCCCc1c(-c2ccc(Cl)cc2)[nH]c2nccnc12`: -5.23.
The result for `c1ccc(-c2cc3[nH]ccnc-3n2)cc1` reads -5.64; that for `COc1cc(OC)cc(-c2cc3[nH]ccnc-3n2)c1`, -4.22; that for `COc1cccc(-c2cc3[nH]ccnc-3n2)c1`, -5.5.
Turning to `C=CCc1c(-c2ccc(OC)cc2)[nH]c2nccnc12`, the “Log IC50” value was -6.22.
The same measure for `c1ccc(Cc2c(-c3ccccc3)[nH]c3nccnc23)cc1`: -6.
The result for `CCCc1c(-c2ccc(O)cc2)[nH]c2nccnc12` reads -5.74.
Turning to `Oc1ccc(-c2[nH]c3nccnc3c2CC2CC2)cc1`, the “Log IC50” value is on record as -5.52.
The result for `Fc1ccc(-c2cc3[nH]ccnc-3n2)cc1` reads -5.72; that for `Oc1ccccc1-c1cc2[nH]ccnc-2n1`, -5.19; that for `Cc1c(-c2ccc(Cl)cc2)[nH]c2nccnc12`, -5.77.
Take `COc1ccc(-c2[nH]c3nccnc3c2CC2CC2)cc1`: the “Log IC50” value is recorded as -5.96.
